# Reference: patent US12337001B2, “Neutral endopeptidase (NEP) and human soluble endopeptidase (hSEP) inhibitors to reduce detrimental effects of perfusion deficiency of parenchymal organs” (priority 2018, dated 2025)
# Tested on: rats subjected to transient bilateral occlusion of the common carotid artery (BCCA)
# Test: Open field test of exploratory performance after transient bilateral occlusion of the common carotid artery (BCCA)
# Format: in vivo, rat
# Conditions: for Ambulation / Blocks (episodes of interest in blocks) / Defecation / Grooming / Rearing: 60 mg/kg/d s.c. osmotic minipump, open field 5 min, x ± SEM
# [1] = BCCA + (6) group, 60 mg/kg/d, 5 days after BCCA
# [2] = BCCA + (6): BCCA 30 min, 5 days after BCCA
# [3] = Control + (6) group (reference = 100)
# [4] = Control + (6): sham-operated Wistar rats
compound,measurement,setting,value
"O=C(O)CN1C(=O)[C@@H](NC(=O)C2(C[C@@H](CCc3ccccc3)C(=O)O)CCCC2)CCc2ccccc21 [Compound (6), (2R)-2-{[1-({[(3S)-1-(carboxymethyl)-2-oxo-2,3,4,5-tetrahydro-1H-1-benzazepin-3-yl]amino}carbonyl)cyclopentyl]methyl}-4-phenylbutanoic acid]","Ambulation, % of sham-operated controls",[1],94.81%
same,"Blocks (episodes of interest in blocks), % of sham-operated controls",[1],103.80%
same,"Defecation, % of sham-operated controls",[1],82.54%
same,"Grooming, % of sham-operated controls",[1],112.83%
same,"Rearing, % of sham-operated controls",[1],104.62%
same,Ambulation,[2],2741 ± 4.25 (n)
same,Blocks (episodes of interest in blocks),[2],7.64 ± 2.54 (n)
same,Defecation,[2],1.04 ± 0.45 (n)
same,Grooming,[2],5.98 ± 1.06 (n)
same,Rearing,[2],12.01 ± 3.86 (n)
same,"Ambulation, % of Control + (6)",[3],100%
same,"Blocks, % of Control + (6)",[3],100%
same,"Defecation, % of Control + (6)",[3],100%
same,"Grooming, % of Control + (6)",[3],100%
same,"Rearing, % of Control + (6)",[3],100%
same,Ambulation,[4],28.91 ± 5.13 (n)
same,Blocks (episodes of interest in blocks),[4],7.36 ± 2.85 (n)
same,Defecation,[4],1.26 ± 0.45 (n)
same,Grooming,[4],5.30 ± 1.57 (n)
same,Rearing,[4],11.48 ± 3.51 (n)
same,Exploratory performance in rats subjected to BCCA,"open field test, 60 mg/kg/d, result in words, 60 mg/kg/day",statistically significant improvement
